Patent publication US5646141A, “Compounds useful as antiproliferative agents and GARFT inhibitors” (Agouron Pharmaceuticals, Inc., priority 1995, dated 1997)
pIC50, pKd, pKi: −log10 of the molar value.

How the values were obtained:
[1] = target: T1, human folate-binding protein (FBP) (Homo sapiens, UniProt P15328); assay: FBP competitive binding assay (3H-folic acid, KB cell membranes); settings: for pKd: 25° C., pH 7.4, 3H-folic acid competition
T1 construct: membrane associated FBP prepared from cultured KB cells; endogenous in cells; host or cells: KB cells (membrane fraction)
Protocol: Determination of Dissociation Constants for Human Folate Binding Protein:
The dissociation constant (Kd) for human folate-binding protein (FBP) was determined in a competitive binding assay using membrane associated FBP prepared from cultured KB cells.
Preparation of KB cell Membrane Fraction:
Adherent KB cells were scraped from flasks, washed once in ice-cold PBS, and centrifuged at 5000×g for 5 minutes at 4° C. Pelleted cells (2×10^8 cells) were resuspended in 10 ml of suspension buffer (KH2 PO4 -KOH pH 7.4:10 mM EDTA:10 mM 2-mercaptoethanol),sonicated briefly to complete cell lysis and centrifuged at 12000×g for 10 minutes at 4° C. The pellet was stripped of endogenous bound folate by resuspension in 20 ml of acidic buffer (50 mM KH2 PO4 -KOH pH 3.5:10 mM EDTA:10 mM 2-mercaptoethanol) and centrifuged as before. The pellet was then resuspended in 20 ml of the suspension buffer at pH 7.4 and centrifuged as before. The pellet was resuspended in 5 ml of suspension buffer at pH 7.4 lacking EDTA. Protein content was quantitated using the Bradford method with BSA as standard. Typical yields for this procedure were 4-5 mg total membrane protein per 2×10^8 cells. This final suspension was used as a source of membrane-associated human FBP.
FBP Competitive Binding Assay:
Inhibitor was allowed to compete against ^3 H-folic acid for binding to FBP. Reactions mixtures contained […] of cell membrane protein containing 3-6 pmoles (3-6 nM) of FBP, 17.25 pmoles ^3 H-folic acid (17.25 nM, 0.5 μCi), various concentrations of competitor, in 1 ml of 50 mM KH2 PO4 -KOH pH 7.4:10 mM 2-mercaptoethanol. Reactions were performed at 25° C. Because of the very slow release of bound ^3 H-folic acid, the competitor was prebound for 30 minutes in the absence of ^3 H-folic acid. ^3 H-Folic acid was then added and the mixtures were allowed to equilibrate for 2.5 hours. […] The amount of bound ^3 H-folic acid was measured by scintillation counting of the nitrocellulose membrane. […]

[2] = test system: CCRF-CEM; assay: In vitro growth inhibition (MTT), CCRF-CEM; format: cell-based; settings: Homo sapiens, title: continuous (72-hour) exposure, incubation 5 days, mean IC50, read-out: IC50 Cell Culture CCRF-CEM
Protocol: (§1) All cultures were maintained at 37° C., 5% air-CO2 in a humidified incubator.
In vitro growth inhibition:
(§2) Stock solutions of the inhibitors were prepared in 10 mM sodium bicarbonate in water and stored in 1 ml aliquots at -20° C. for cell culture experiments. Cell-growth inhibition was measured by a modification of the method of Mosmann, J. Immunol.
(§3) Column 1 was filled with the same volume, 135 ml, of fresh medium, without cells, for use as a blank. The plates were then placed in a 37° C., 5% air-CO2 incubator. After 1 to 4 hours, plates were removed from the incubator followed by addition of the test compound at 10×final concentration, 15 ml/well in binary dilutions, to columns 12 to 4. […] Wells containing each concentration of test compound were prepared in quadruplicate on each plate. Fifteen milliliters of media, without test compound, were added to the wells in column 1 of the plates. The cells were then returned to the incubator and remained undisturbed for the full incubation period. On day 3 for L1210 and L1210/CI920 cells or day 5 for CCRF-CEM cells, 50 ml of 0.8 mg/ml MTT (4,5-dimethylthiazol-2-yl)-2,5-diphenyl tetrazolium bromide; Sigma catalog no. […] The concentration of drug required to reduce cell growth by 50% as measured by MTT metabolism was determined by interpolation between the O.D. (minus blank) immediately above and below 50% of control O.D. (minus blank).

[3] = target: T2, catalytic domain of the human GARFT (Homo sapiens, UniProt P22102); assay: GAR transformylase (GARFT) inhibition constant determination; format: biochemical; settings: 20° C., pH 7.5, competitive with respect to FDDF
T2 construct: catalytic domain of the human GARFT
T2 sequence (P22102 810-1010 limits assumed): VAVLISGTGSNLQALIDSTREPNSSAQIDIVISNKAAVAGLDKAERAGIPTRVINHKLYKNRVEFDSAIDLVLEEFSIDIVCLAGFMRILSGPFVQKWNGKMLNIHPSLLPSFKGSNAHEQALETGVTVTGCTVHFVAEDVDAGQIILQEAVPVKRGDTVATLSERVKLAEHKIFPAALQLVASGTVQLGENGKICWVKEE

[4] = test system: L1210; assay: In vitro growth inhibition (MTT), L1210; format: cell-based; settings: Mus musculus, continuous (72-hour) exposure, mean IC50, read-out: IC50 Cell Culture L1210
Protocol: as §1
In vitro growth inhibition:
as §2, §3

[5] = test system: reduced folate transport system and the mFBP; settings: CCRF-CEM and MA104 cell lines for DDATHF (Pizzorno et al.); cited from earlier work
[6] = test system: mFBP; settings: cited from earlier work
[7] = reported in literature (Muggia); cited from earlier work

T1 sequence (P15328 25-257): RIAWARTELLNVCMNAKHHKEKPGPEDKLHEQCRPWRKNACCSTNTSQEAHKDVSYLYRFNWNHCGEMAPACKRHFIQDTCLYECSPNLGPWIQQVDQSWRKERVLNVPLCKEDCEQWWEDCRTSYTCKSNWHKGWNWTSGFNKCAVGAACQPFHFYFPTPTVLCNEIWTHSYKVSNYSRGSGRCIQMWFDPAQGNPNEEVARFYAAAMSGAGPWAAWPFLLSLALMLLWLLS

relative folate binding protein Kd, times less potent than 6R-DDATHF ([1]; relative to 6R-DDATHF) | pKi [3] | SMILES | pKd [1] | pIC50 [2] | pIC50 [4] | transport into cells [5] | affinity for the mFBP [6] | antitumor activity [7]
about 1400 times | 8.85 | Cc1cc(C(=O)N[C@@H](CCC(=O)O)C(=O)O)sc1CCC1CNc2nc(N)[nH]c(=O)c2C1 (stereo partly drawn) [Compound 1, N-(5-[2-(2-amino-4(3H)-oxo-5,6,7,8-tetrahydropyrido[2,3-d]pyrimidin 6-yl)ethyl]-4-methylthieno-2-yl)-L-glutamic acid] | 7.55 | 8.21 | 7.87 | – | – | –
– | – | CN(Cc1cnc2nc(N)nc(N)c2n1)c1ccc(C(=O)N[C@@H](CCC(=O)O)C(=O)O)cc1 [Methotrexate] | – | – | – | transported via the reduced folate transport system | – | –
– | – | Nc1nc2c(c(=O)[nH]1)CC(CCc1ccc(C(=O)N[C@@H](CCC(=O)O)C(=O)O)cc1)CN2 (stereo partly drawn) [DDATHF, 5,10-dideazatetrahydrofolic acid] | 10.70 | 8.82 | 7.76 | transported into cells via both the reduced folate transport system and the mFBP | high affinity for the mFBP | reported to show antitumor activity
